Patent publication US4800199A, “3-[2-thiazoloamino]-8-oxo-7-substituted-5-thia-1-a zabicyclo-[4.2.0]oct-2-ene-2-carboxylic acid and salts thereof and diphenylmethyl esters thereof” (American Cyanamid Company, priority 1986, dated 1989)
In brackets after ≈: the same amount, converted by molar mass.

Assays:
Test in all cases: In vitro antibacterial activity, Mueller-Hinton agar dilution
Format in all cases: cell-based
Acinetobacter CMC 83-89 = conditions: CMC8389, read-out: Minimal Inhibitory Concentration
Excerpt: (§1) The results of this test on representative compounds of this invention appear in Table I.

Acinetobacter IO 83-49 = conditions: IO8349, read-out: Minimal Inhibitory Concentration
Excerpt: as §1

[1] = test system: Bacillus subtilis ATCC 6633; conditions: ATCC6633, read-out: Minimal Inhibitory Concentration
Excerpt: as §1

[2] = test system: Citrobacter diversis K83-24; conditions: K8324, read-out: Minimal Inhibitory Concentration
Excerpt: as §1

[3] = test system: Citrobacter freundii IO 83-13; conditions: IO8313, read-out: Minimal Inhibitory Concentration
Excerpt: as §1

[4] = test system: Enterobacter aerogenes IO 83-44; conditions: Klebsiella aerogenes, IO8344, read-out: Minimal Inhibitory Concentration
Excerpt: as §1

[5] = test system: Enterobacter cloacae CMC 84-4; conditions: CMC844, read-out: Minimal Inhibitory Concentration
Excerpt: as §1

Enterococcus CMC 83-53 = conditions: CMC8353, read-out: Minimal Inhibitory Concentration
Excerpt: as §1

Escherichia coli 311 = conditions: read-out: Minimal Inhibitory Concentration
Excerpt: as §1

[6] = test system: Escherichia coli ATCC 25922; conditions: ATCC25922, read-out: Minimal Inhibitory Concentration
Excerpt: as §1

[7] = test system: Escherichia coli CMC 84-11; conditions: CMC8411, read-out: Minimal Inhibitory Concentration
Excerpt: as §1

[8] = test system: Klebsiella oxytoca IO 83-1; conditions: IO831, read-out: Minimal Inhibitory Concentration
Excerpt: as §1

Klebsiella pneumoniae AD = conditions: read-out: Minimal Inhibitory Concentration
Excerpt: as §1

[9] = test system: Klebsiella pneumoniae CMC 84-5; conditions: CMC845, read-out: Minimal Inhibitory Concentration
Excerpt: as §1

[10] = test system: Micrococcus lutea PC 1001; conditions: PC1001, read-out: Minimal Inhibitory Concentration
Excerpt: as §1

[11] = test system: Morganella morganii IO 83-18; conditions: IO8318, read-out: Minimal Inhibitory Concentration
Excerpt: as §1

[12] = test system: Proteus rettgheri IO 83-21; conditions: read-out: Minimal Inhibitory Concentration
Excerpt: as §1

[13] = test system: Providencia stuartii CMC 83-82; conditions: CMC8382, read-out: Minimal Inhibitory Concentration
Excerpt: as §1

[14] = test system: Pseudomonas aeruginosa 12-4-4; conditions: 1244, read-out: Minimal Inhibitory Concentration
Excerpt: as §1

[15] = test system: Pseudomonas aeruginosa ATCC 27853; conditions: ATCC27853, read-out: Minimal Inhibitory Concentration
Excerpt: as §1

[16] = test system: Pseudonmonas aeruginosa CMC 83-19; conditions: read-out: Minimal Inhibitory Concentration
Excerpt: as §1

[17] = test system: Serratia marcescens CMC 83-27; conditions: CMC8327, read-out: Minimal Inhibitory Concentration
Excerpt: as §1

Serratia marcescens F-35 = conditions: F35, read-out: Minimal Inhibitory Concentration
Excerpt: as §1

[18] = test system: Staphylococcus aureus ATCC 25923; conditions: ATCC25923, read-out: Minimal Inhibitory Concentration
Excerpt: as §1

[19] = test system: Staphylococcus aureus SSC 82-20; conditions: SSC8220, read-out: Minimal Inhibitory Concentration
Excerpt: as §1

[20] = test system: Staphylococcus aureus SSC 82-24; conditions: SSC8224, read-out: Minimal Inhibitory Concentration
Excerpt: as §1

[21] = test system: Staphylococcus aureus SSC 82-26; conditions: SSC8226, read-out: Minimal Inhibitory Concentration
Excerpt: as §1

[22] = test system: Staphylococcus aureus SSC 82-31; conditions: SSC8231, read-out: Minimal Inhibitory Concentration
Excerpt: as §1

[23] = test system: Staphylococcus aureus SSC 82-57; conditions: SSC8257, read-out: Minimal Inhibitory Concentration
Excerpt: as §1

[24] = test system: Staphylococcus epidermidis ATCC 12228; conditions: ATCC12228, read-out: Minimal Inhibitory Concentration
Excerpt: as §1

[25] = test system: Staphylococcus epidermidis CMC 83-133; conditions: CMC83133, read-out: Minimal Inhibitory Concentration
Excerpt: as §1

[26] = test system: Streptococcus faecalis ATCC 29212; conditions: Enterococcus faecalis, ATCC29212, read-out: Minimal Inhibitory Concentration
Excerpt: as §1

Row | MIC (Acinetobacter CMC 83-89) | MIC (Acinetobacter IO 83-49) | MIC [1] | MIC [2] | MIC [3] | MIC [4] | MIC [5] | MIC (Enterococcus CMC 83-53) | MIC (Escherichia coli 311) | MIC [6] | MIC [7] | MIC [8] | MIC (Klebsiella pneumoniae AD) | MIC [9] | MIC [10] | MIC [11] | MIC [12] | MIC [13] | MIC [14] | MIC [15] | SMILES | other results
1 | > 128 µg/mL | > 128 µg/mL | 0.5 µg/mL (≈ 0.942 µM) | > 128 µg/mL | > 128 µg/mL | > 128 µg/mL | > 128 µg/mL | 64 µg/mL (≈ 121 µM) | > 128 µg/mL | > 128 µg/mL | > 128 µg/mL | > 128 µg/mL | > 128 µg/mL | > 128 µg/mL | 1 µg/mL (≈ 1.88 µM) | > 128 µg/mL | 64 µg/mL (≈ 121 µM) | > 128 µg/mL | > 128 µg/mL | > 128 µg/mL | CC(=O)OCC1=C(C(=O)O)N2C(=O)[C@@H](Nc3nc(C(=O)OCC(Cl)(Cl)Cl)cs3)[C@H]2SC1 [Example 9, (6R-trans)-3-[(Acetyloxy)methyl]-8-oxo-7-[[4-[(2,2,2-trichloroethoxy)carbonyl]-2-thiazolyl]amino]-5-thia-1-azabicyclo[4.2.0]oct-2-ene-2-carboxylic acid] | MIC [16]: > 128 µg/mL; MIC [17]: > 128 µg/mL; MIC (Serratia marcescens F-35): > 128 µg/mL; MIC [18]: 0.12 µg/mL (≈ 0.226 µM); MIC [19]: 0.25 µg/mL (≈ 0.471 µM); MIC [20]: > 128 µg/mL; MIC [21]: 0.12 µg/mL (≈ 0.226 µM); MIC [22]: ≤ 0.06 µg/mL; MIC [23]: 128 µg/mL (≈ 241 µM); MIC [24]: ≤ 0.06 µg/mL; MIC [25]: ≤ 0.06 µg/mL; MIC [26]: 16 µg/mL (≈ 30.1 µM)
2 | > 128 µg/mL | > 128 µg/mL | 8 µg/mL (≈ 16.4 µM) | > 128 µg/mL | > 128 µg/mL | > 128 µg/mL | > 128 µg/mL | > 128 µg/mL | > 128 µg/mL | > 128 µg/mL | > 128 µg/mL | > 128 µg/mL | > 128 µg/mL | > 128 µg/mL | 8 µg/mL (≈ 16.4 µM) | > 128 µg/mL | > 128 µg/mL | > 128 µg/mL | > 128 µg/mL | > 128 µg/mL | CC(=O)OCC1=C(C(=O)O)N2C(=O)[C@@H](Nc3nc(C(=O)NCc4ccccc4)cs3)[C@H]2SC1 [Example 11, (6R-trans)-3-[(Acetyloxy)methyl]-8-oxo-7-[[4-[[(phenylmethyl)amino]carbonyl]-2-thiazolyl]amino]-5-thia-1-azabicyclo[4.2.0]oct-2-ene-2-carboxylic acid] | MIC [16]: > 128 µg/mL; MIC [17]: > 128 µg/mL; MIC (Serratia marcescens F-35): > 128 µg/mL; MIC [18]: 4 µg/mL (≈ 8.19 µM); MIC [19]: 8 µg/mL (≈ 16.4 µM); MIC [20]: > 128 µg/mL; MIC [21]: 4 µg/mL (≈ 8.19 µM); MIC [22]: 4 µg/mL (≈ 8.19 µM); MIC [23]: 128 µg/mL (≈ 262 µM); MIC [24]: 2 µg/mL (≈ 4.09 µM); MIC [25]: 2 µg/mL (≈ 4.09 µM); MIC [26]: > 128 µg/mL
3 | > 128 µg/mL | > 128 µg/mL | 8 µg/mL (≈ 20 µM) | > 128 µg/mL | > 128 µg/mL | > 128 µg/mL | > 128 µg/mL | > 128 µg/mL | > 128 µg/mL | > 128 µg/mL | > 128 µg/mL | > 128 µg/mL | > 128 µg/mL | > 128 µg/mL | 16 µg/mL (≈ 40.1 µM) | > 128 µg/mL | 128 µg/mL (≈ 320 µM) | > 128 µg/mL | > 128 µg/mL | > 128 µg/mL | CC(=O)OCC1=C(C(=O)O)N2C(=O)[C@@H](Nc3nc(C(=O)O)cs3)[C@H]2SC1 [Example 7, (6R-trans)-3-[(Acetyloxy)methyl]-7-[(4-carboxy-2-thiazolyl)amino]-8-oxo-5-thia-1-azabicyclo[4.2.0]oct-2-ene-2-carboxylic acid] | MIC [16]: > 128 µg/mL; MIC [17]: > 128 µg/mL; MIC (Serratia marcescens F-35): > 128 µg/mL; MIC [18]: 8 µg/mL (≈ 20 µM); MIC [19]: 16 µg/mL (≈ 40.1 µM); MIC [20]: > 128 µg/mL; MIC [21]: 8 µg/mL (≈ 20 µM); MIC [22]: 8 µg/mL (≈ 20 µM); MIC [23]: 128 µg/mL (≈ 320 µM); MIC [24]: 4 µg/mL (≈ 10 µM); MIC [25]: 2 µg/mL (≈ 5.01 µM); MIC [26]: > 128 µg/mL
4 | > 128 µg/mL | > 128 µg/mL | 1 µg/mL (≈ 2.71 µM) | > 128 µg/mL | > 128 µg/mL | > 128 µg/mL | > 128 µg/mL | 128 µg/mL (≈ 346 µM) | 64 µg/mL (≈ 173 µM) | > 128 µg/mL | > 128 µg/mL | > 128 µg/mL | 64 µg/mL (≈ 173 µM) | 128 µg/mL (≈ 346 µM) | 4 µg/mL (≈ 10.8 µM) | > 128 µg/mL | > 128 µg/mL | > 128 µg/mL | > 128 µg/mL | > 128 µg/mL | CC(=O)OCC1=C(C(=O)O)N2C(=O)[C@@H](Nc3nc(C)cs3)[C@H]2SC1 [Example 12, (6R-trans)-3-[(Acetyloxy)methyl]-7-[(4-methyl-2-thiazolyl)amino]-8-oxo-5-thia-1-azabicyclo[4.2.0]oct-2-ene-2-carboxylic acid] | MIC [16]: > 128 µg/mL; MIC [17]: > 128 µg/mL; MIC (Serratia marcescens F-35): > 128 µg/mL; MIC [18]: 4 µg/mL (≈ 10.8 µM); MIC [19]: 4 µg/mL (≈ 10.8 µM); MIC [20]: 64 µg/mL (≈ 173 µM); MIC [21]: 4 µg/mL (≈ 10.8 µM); MIC [22]: 4 µg/mL (≈ 10.8 µM); MIC [23]: 128 µg/mL (≈ 346 µM); MIC [24]: 2 µg/mL (≈ 5.41 µM); MIC [25]: 2 µg/mL (≈ 5.41 µM); MIC [26]: 128 µg/mL (≈ 346 µM)
